Results reported in patent US20080091026A1, “NOVEL CRYSTAL OF N-[[(5S)-3-[4-(2,6-DIHYDRO-2-METHYLPYRROLO[3,4-C]PYRAZOL-5(4H)-YL)-3-FLUOROPHENYL]-2-OXO-5-OXAZOLIDINYL]METHYL]ACETAMIDE” (TRANSFORM PHARMACEUTICALS, INC., priority 2006, published 2008).

Legend:
[1] = background statement; cited from earlier work
[2] = solubility of the crystal form; format: physicochemical; conditions: compared to prior known forms of the API
[3] = bioavailability of the crystal form; format: in vivo; conditions: compared to prior known forms of the API

Row | solubility [2] | bioavailability [3] | Structure (SMILES) | bioavailability in humans [1]
1 | – | – | CC(=O)NC[C@H]1CN(c2ccc(N3Cc4cn(C)nc4C3)c(F)c2)C(=O)O1 [N-[[(5S)-3-[4-(2,6-dihydro-2-methylpyrrolo[3,4-c]pyrazol-5(4H)-yl)-3-fluorophenyl]-2-oxo-5-oxazolidinyl]methyl]acetamide] | poor
2 | improved | improved | CC(=O)NC[C@H]1CN(c2ccc(N3Cc4cn(C)nc4C3)c(F)c2)C(=O)O1.O=C(O)CC(=O)O [Form α crystal] | –
